Measured values from patent publication US8431536B2, “Target for breast cancer therapy and/or diagnosis” (The University of Queensland, priority 2007, dated 2013).

Tested on: MCF-7 breast cancer cells
Assay: MTS proliferation/viability assay in MCF-7 breast cancer cells
Type: cell-based
Conditions: 50 μM, treated on plating in 10% foetal bovine serum, MTS 72 hrs after plating, p<0.05 vs methanol control (FIG. 8)
Method: FIG. 6 The effect of siRNA to CRACM1 (96 hrs) on the viability of MCF-7 cells, as measured by an MTS assay for cellular proliferation. Normalized MTS absorbance (proliferation/viability) of the mean of 3 independent experiments in MCF-7 breast cancer cells (±SEM). For each experiment absorbance was assessed in quadruplicate. Experiment was performed in 1% foetal bovine serum (p<0.05).
FIG. 8 MTS assay of MCF-7 cells treated with 50 μM 2-APB. * p<0.05 compared with respective methanol control. Error bars=SD. Cells were treated with 2-APB on plating in 10% foetal bovine serum. MTS assay was performed 72 hrs after plating.

NCCOB(c1ccccc1)c1ccccc1 [2-APB, 2-aminoethoxydiphenyl borate]
proliferation/viability of MCF-7 cells (MTS assay): inhibits the proliferation/viability of MCF-7 breast
